Results reported in the NIST ThermoML archive (doi:10.1021/je060271a).
± gives the expanded uncertainty stated by the source.

Settings: 303.15 K, Liquid, Vibrating tube method

## CCCCCCC(=O)OCC(COC(=O)CCCCCC)(COC(=O)CCCCCC)COC(=O)CCCCCC [pentaerythritol tetraheptanoate]
14618 kPa
  mass density: 979.8 ± 1.2 kg/m3
14643 kPa
  mass density: 979.6 ± 1.2 kg/m3
14669 kPa
  mass density: 979.7 ± 1.2 kg/m3
14835 kPa
  mass density: 979.7 ± 1.2 kg/m3
14866 kPa
  mass density: 979.8 ± 1.2 kg/m3
14893 kPa
  mass density: 979.8 ± 1.2 kg/m3
14920 kPa
  mass density: 979.9 ± 1.2 kg/m3
14947 kPa
  mass density: 979.9 ± 1.2 kg/m3
14979 kPa
  mass density: 979.9 ± 1.2 kg/m3
15006 kPa
  mass density: 979.9 ± 1.2 kg/m3
15179 kPa
  mass density: 980 ± 1.2 kg/m3
15268 kPa
  mass density: 980.1 ± 1.2 kg/m3
15330 kPa
  mass density: 980.1 ± 1.2 kg/m3
15358 kPa
  mass density: 980.1 ± 1.2 kg/m3
15511 kPa
  mass density: 980.2 ± 1.2 kg/m3
15757 kPa
  mass density: 980.3 ± 1.2 kg/m3
15823 kPa
  mass density: 980.4 ± 1.2 kg/m3
15852 kPa
  mass density: 980.4 ± 1.2 kg/m3
15911 kPa
  mass density: 980.5 ± 1.2 kg/m3
15969 kPa
  mass density: 980.5 ± 1.2 kg/m3
15996 kPa
  mass density: 980.5 ± 1.2 kg/m3
16084 kPa
  mass density: 980.4 ± 1.2 kg/m3
16171 kPa
  mass density: 980.5 ± 1.2 kg/m3
16226 kPa
  mass density: 980.7 ± 1.2 kg/m3
16314 kPa
  mass density: 980.7 ± 1.2 kg/m3
16348 kPa
  mass density: 980.7 ± 1.2 kg/m3
16441 kPa
  mass density: 980.7 ± 1.2 kg/m3
16499 kPa
  mass density: 980.7 ± 1.2 kg/m3
16527 kPa
  mass density: 980.8 ± 1.2 kg/m3
16556 kPa
  mass density: 980.8 ± 1.2 kg/m3
16591 kPa
  mass density: 980.8 ± 1.2 kg/m3
16620 kPa
  mass density: 980.9 ± 1.2 kg/m3
16684 kPa
  mass density: 980.8 ± 1.2 kg/m3
16714 kPa
  mass density: 981 ± 1.2 kg/m3
16809 kPa
  mass density: 980.9 ± 1.2 kg/m3
16906 kPa
  mass density: 981 ± 1.2 kg/m3
16937 kPa
  mass density: 981.1 ± 1.2 kg/m3
16967 kPa
  mass density: 981.1 ± 1.2 kg/m3
17004 kPa
  mass density: 981 ± 1.2 kg/m3
17035 kPa
  mass density: 981 ± 1.2 kg/m3
17066 kPa
  mass density: 981.1 ± 1.2 kg/m3
17103 kPa
  mass density: 981.1 ± 1.2 kg/m3
17134 kPa
  mass density: 981.1 ± 1.2 kg/m3
17305 kPa
  mass density: 981.2 ± 1.2 kg/m3
17337 kPa
  mass density: 981.2 ± 1.2 kg/m3
17369 kPa
  mass density: 981.4 ± 1.2 kg/m3
17407 kPa
  mass density: 981.3 ± 1.2 kg/m3
17756 kPa
  mass density: 981.5 ± 1.2 kg/m3
17796 kPa
  mass density: 981.5 ± 1.2 kg/m3
17831 kPa
  mass density: 981.5 ± 1.2 kg/m3
17865 kPa
  mass density: 981.5 ± 1.2 kg/m3
17899 kPa
  mass density: 981.6 ± 1.2 kg/m3
17940 kPa
  mass density: 981.7 ± 1.2 kg/m3
17975 kPa
  mass density: 981.7 ± 1.2 kg/m3
18052 kPa
  mass density: 981.6 ± 1.2 kg/m3
18128 kPa
  mass density: 981.7 ± 1.2 kg/m3
18164 kPa
  mass density: 981.8 ± 1.2 kg/m3
18201 kPa
  mass density: 981.7 ± 1.2 kg/m3
18237 kPa
  mass density: 981.8 ± 1.2 kg/m3
18282 kPa
  mass density: 981.7 ± 1.2 kg/m3
18319 kPa
  mass density: 981.9 ± 1.2 kg/m3
18356 kPa
  mass density: 981.8 ± 1.2 kg/m3
18394 kPa
  mass density: 981.8 ± 1.2 kg/m3
18458 kPa
  mass density: 981.9 ± 1.2 kg/m3
18488 kPa
  mass density: 981.8 ± 1.2 kg/m3
18517 kPa
  mass density: 981.8 ± 1.2 kg/m3
18612 kPa
  mass density: 982 ± 1.2 kg/m3
18935 kPa
  mass density: 982.2 ± 1.2 kg/m3
18973 kPa
  mass density: 982.2 ± 1.2 kg/m3
19005 kPa
  mass density: 982.2 ± 1.2 kg/m3
19038 kPa
  mass density: 982.3 ± 1.2 kg/m3
19070 kPa
  mass density: 982.2 ± 1.2 kg/m3
19102 kPa
  mass density: 982.2 ± 1.2 kg/m3
19342 kPa
  mass density: 982.4 ± 1.2 kg/m3
19381 kPa
  mass density: 982.5 ± 1.2 kg/m3
19414 kPa
  mass density: 982.5 ± 1.2 kg/m3
19448 kPa
  mass density: 982.5 ± 1.2 kg/m3
19484 kPa
  mass density: 982.6 ± 1.2 kg/m3
19774 kPa
  mass density: 982.5 ± 1.2 kg/m3
19918 kPa
  mass density: 982.7 ± 1.2 kg/m3
19954 kPa
  mass density: 982.7 ± 1.2 kg/m3
19989 kPa
  mass density: 982.8 ± 1.2 kg/m3
20030 kPa
  mass density: 982.7 ± 1.2 kg/m3
20066 kPa
  mass density: 982.9 ± 1.2 kg/m3
20143 kPa
  mass density: 982.9 ± 1.2 kg/m3
20336 kPa
  mass density: 982.9 ± 1.2 kg/m3
20372 kPa
  mass density: 982.9 ± 1.2 kg/m3
20409 kPa
  mass density: 983 ± 1.2 kg/m3
20454 kPa
  mass density: 983 ± 1.2 kg/m3
20490 kPa
  mass density: 983.1 ± 1.2 kg/m3
20527 kPa
  mass density: 983.1 ± 1.2 kg/m3
20572 kPa
  mass density: 983.1 ± 1.2 kg/m3
20609 kPa
  mass density: 983.2 ± 1.2 kg/m3
20647 kPa
  mass density: 983.1 ± 1.2 kg/m3
20691 kPa
  mass density: 983.2 ± 1.2 kg/m3
20729 kPa
  mass density: 983.3 ± 1.2 kg/m3
20767 kPa
  mass density: 983.1 ± 1.2 kg/m3
20812 kPa
  mass density: 983.2 ± 1.2 kg/m3
20936 kPa
  mass density: 983.2 ± 1.2 kg/m3
20976 kPa
  mass density: 983.4 ± 1.2 kg/m3
21014 kPa
  mass density: 983.4 ± 1.2 kg/m3
21054 kPa
  mass density: 983.3 ± 1.2 kg/m3
21101 kPa
  mass density: 983.4 ± 1.2 kg/m3
21140 kPa
  mass density: 983.4 ± 1.2 kg/m3
21179 kPa
  mass density: 983.5 ± 1.2 kg/m3
21227 kPa
  mass density: 983.4 ± 1.2 kg/m3
21267 kPa
  mass density: 983.4 ± 1.2 kg/m3
21314 kPa
  mass density: 983.5 ± 1.2 kg/m3
21354 kPa
  mass density: 983.4 ± 1.2 kg/m3
21444 kPa
  mass density: 983.6 ± 1.2 kg/m3
21526 kPa
  mass density: 983.6 ± 1.2 kg/m3
21576 kPa
  mass density: 983.5 ± 1.2 kg/m3
